From US11773127B2, “Compounds and methods for treating bacterial infections” (Washington University, priority 2017, dated 2023)
Values after ≈ are worked out from the molar mass of the structure shown.

Assays:
FmlHLD [1] = target: T1, FmlHLD (Escherichia coli, UniProt P77588); assay: biochemical; assay type: binding, E. coli
T1 construct: 6xHis (C); made in house; host or cells: E. coli C600, periplasm, pTRC99a
Method in brief: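 Sialidase-treated bovine submaxillary mucin (ds-BSM) coated wells, BSA-blocked, then biotinylated FmlH^LD (20 μg/mL) with or without compound for 1 h at room temperature. Bound lectin detected by streptavidin-HRP/TMB, A450.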

CFT073 = assay: Murine chronic UTI (chronic cystitis) model, bacterial titers in bladder and kidney; assay type: in vivo, C3H/HeN mice; conditions: 50 mg/kg transurethral, 6 hours post treatment, relative to vehicle control
Experimental: To assess therapeutic efficacy, galactosides were evaluated for their ability to reduce bacterial burdens in the urinary tracts of C3H/HeN mice during chronic UTI. 7-8 week old female C3H/HeN mice were obtained from Envigo (Indianapolis, IN). Mice were anesthetized and inoculated via transurethral catheterization with 50 μl of CFT073 bacterial suspension (˜1-2*10^8 CFU in total) in phosphate-buffered saline (PBS). Chronic cystitis in C3H/HeN mice was defined as urine titers of >10^4 CFU/ml lasting at least two to four weeks, as well as bladder inflammation and edema at euthanasia. […] Accordingly, high levels of CFT073 kidney colonization were also observed in control (vehicle-treated) animals. […] Compounds tested were: 29β-NAc (50 mg/kg), mannoside 4Z269 (a type 1 pilus adhesin FimH inhibitor, 50 mg/kg), or 29β-NAc+4Z269. Mice were sacrificed 6 hours post treatment and bacteria colonizing the bladder or kidney were plated for quantification. Data are presented in FIG. 9, panels A and B, as bacterial titers of CFT073 in each organ in each condition. The horizontal lines represent the means. Asterisks indicate significance (*P<0.05, **P<0.01, ***P<0.001, ****P<0.0001, two-tailed Mann-Whitney U test). Each condition was measured in two or three independent experiments with 4 or 5 mice per group per experiment.

FmlHLD [2] = target: T1, FmlHLD; assay: biochemical; assay type: binding, E. coli; conditions: for Kd: immobilized ser-TF
From the text: Bio-layer interferometry (BLI) was used to quantitate the binding affinity of select galactosides to FmlH.
Thereafter, pins were dipped in PBS for 120 s and transferred to protein samples (varying concentration of FmlHLD or fixed concentration of FmlHLD with varying concentration of galactoside compounds) for association for 300-600 s.

FmlHLD [3] = target: T1, FmlHLD; assay: Immunofluorescence of FmlHLD binding to human bladder and kidney tissue; design: species or system E. coli; conditions: 50 μg/ml FmlHLD WT incubated with 100 μM compound
Experimental: The relevance of FmlH and FmlH-targeting galactosides in human UTI was assessed by performing immunofluorescence analysis of wild-type (WT) FmlHLD or mutant (K132Q) FmlHLD binding to human bladder and non-malignant kidney biopsied tissue in the presence or absence of 29β-NAc.
Frozen, de-identified human bladder and kidney sections were obtained from the Tissue Procurement Core and stored stably at −80° C. These tissue section slides were removed from the freezer and allowed to thaw at room temperature for 10-20 min. After applying a hydrophobic barrier pen around the tissue, slides were rehydrated in 200 μl buffer (5% BSA, 0.2% Triton X-100 in PBS) for 10 min. Buffer was gently aspirated and slides were blocked for 1 hr at room temperature with 200 μl buffer. Thereafter, buffer was gently aspirated and slides were incubated with 200 μl sample overnight at 4° C. Samples diluted in buffer included 50 μg/ml FmlHLD wild-type (WT), 50 μg/ml FmlHLD K132Q, and 50 μg/ml FmlHLD WT incubated with 100 μM 29β-NAc. Samples were gently aspirated and slides were washed three times in buffer for 5 min each. Next, slides were incubated with a mouse anti-FmlH polyclonal antibody (1:500 dilution in buffer) for 1 hr at room temperature. […]

Mouse plasma stability = assay type: in vitro ADME
Experimental: (§1) These compounds were assessed for their stability in simulated gastric fluid (SGF), simulated intestinal fluid (SIF), mouse liver microsomes, and blood plasma (Table 7). […] These findings are consistent with our earlier characterization of FimH antagonists (mannosides).

[4] = Mouse pharmacokinetics, IP injection; conditions: 20 mg/kg IP
Experimental: These studies were conducted via 20 mg/kg intraperitoneal (IP) injection to inform planned future IP studies in murine studies of chronic UTI, which require a single IP dose of galactoside to persist in the plasma for 6 hours prior to measurement of bladder bacterial burdens (FIG. 17)^22.

Kinetic solubility = assay type: physicochemical
[5] = Mouse liver microsome stability; assay type: in vitro ADME
Experimental: as §1

[6] = Stability in simulated intestinal fluid (SIF); assay type: in vitro ADME
Experimental: as §1

[7] = Stability in simulated gastric fluid (SGF); assay type: in vitro ADME
Experimental: as §1

[8] = target: T2, FmlH lectin domain (FmlH^LD; first 182 amino acids of CFT073 FmlH = signal sequence and lectin domain, C-terminal 6×-his tag, wild-type, biotinylated) (Escherichia coli, UniProt A0A0H2V7F6); assay: ELISA-based competition assay: inhibition of biotinylated FmlH lectin domain binding to surface-immobilized desialylated bovine submaxillary mucin (ds-BSM); design: species or system E. coli (uropathogenic, urosepsis isolate CFT073); conditions: read-out: FmlH (FmlH^LD) lectin domain (LD) IC50, FIG. 14, 20 μg/mL biotinylated FmlH^LD, compounds serially diluted 2×, 1 hour at room temperature, ds-BSM coated wells, absorbance 450 nm
T2 construct: biotinylated for ELISA; wild type
T2 sequence (A0A0H2V7F6 entry or part of it): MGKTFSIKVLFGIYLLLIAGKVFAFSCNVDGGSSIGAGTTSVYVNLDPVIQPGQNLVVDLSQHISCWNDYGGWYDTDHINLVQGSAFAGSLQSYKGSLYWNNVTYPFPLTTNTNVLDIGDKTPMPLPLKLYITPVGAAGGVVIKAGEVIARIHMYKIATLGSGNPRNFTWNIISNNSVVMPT
Experimental: Thereafter, wells were incubated with 200 μl blocking buffer (PBS+1% BSA) for 2 hours at 23° C., followed by incubation with 100 μl biotinylated FmlHLD diluted in blocking buffer to 20 μg/ml in the presence or absence of the tested compounds for 1 hr at 23° C. After washing 3× with PBS+0.05% TWEEN-20, 100 μl Streptavidin-HRP conjugate (BD Biosciences; 1:2000 dilution in blocking buffer) was added to each well for 1 hr at 23° C. After a final round of washing, plates were developed with 100 μl Tetramethylbenzidine (TMB, BD Biosciences) substrate, quenched within 1-2 min with 50 μl […], and absorbance measured at 450 nm.
Briefly, 1 μg bovine submaxillary mucin (Sigma) in 100 uL PBS were incubated with Immulon 4HBX 96-well plates overnight prior to treatment with 1 mU Arthrobacter ureafaciens sialidase for 1 hour at 37° C. to remove terminal sialic acid sugars. Wells were then blocked with 200 μL PBS+1% BSA for 2 hours at room temperature. Biotinylated FmlH^LD was diluted to 20 μg/mL in blocking buffer and incubated in the presence or absence of compounds serially diluted 2× down eight rows for 1 hour at room temperature. […] Total bound portion concentration was measured by the absorbance at 450 nm. IC50s were determined using the Graphpad Prism software.

T1 sequence (P77588 25-182): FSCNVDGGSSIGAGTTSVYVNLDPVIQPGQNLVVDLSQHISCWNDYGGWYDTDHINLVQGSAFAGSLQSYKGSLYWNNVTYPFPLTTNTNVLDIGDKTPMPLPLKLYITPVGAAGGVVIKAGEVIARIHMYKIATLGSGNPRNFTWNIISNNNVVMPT

Compound: CC(=O)N[C@H]1[C@H](Oc2ccccc2-c2cccc(C(=O)O)c2)O[C@H](CO)[C@H](O)[C@@H]1O [Compound 29β-NAc, 2′-(2-acetamido-2-deoxy-β-D-galactopyranosyloxy)-[1,1′-Biphenyl]-3-carboxylic acid]
- inhibitory potency against FmlH, in words (FmlHLD [1]; ELISA-based competition assay): most potent
- IC50 (FmlHLD [1]; IC50 (μM), Table 5, Gal and GalNAc inhibition of FmlH): 0.64 µM
- inhibition at 1 µM (FmlHLD [1]; read-out: PI1 (percent inhibition), galactoside at 1 μM, mean with standard error of the mean): 54.7 ± 2.8%
- inhibition at 10 µM (FmlHLD [1]; read-out: PI10 (percent inhibition), galactoside at 10 μM, mean with standard error of the mean): 93%
- inhibition at 100 µM (FmlHLD [1]; read-out: PI100 (percent inhibition), galactoside at 100 μM, mean with standard error of the mean): 99.5 ± 2.2%
- bacterial titers of CFT073 in the bladder (CFT073): significant reduction of CFT073 in the bladders
- bacterial titers of CFT073 in the kidney (CFT073): even greater clearance of CFT073 from the kidneys
- enhancement in binding affinity relative to Gal (FmlHLD [2]; BLI Kd ratio): ~7,800 fold
- Kd (FmlHLD [2]; Kd (μM), inhibitory constants, fixed FmlHLD, varying galactoside in solution): 0.089 µM
- Kd (FmlHLD [2]; Kd, galactoside in solution): ~0.09 µM
- FmlHLD binding to human kidney tissue (FmlHLD [3]): prevented binding to human kidney tissue

Compound: CC(=O)N[C@H]1[C@H](Oc2cccc(C)c2-c2cccc(NS(C)(=O)=O)c2)O[C@H](CO)[C@H](O)[C@@H]1O [Compound 3084, N-((2S,3R,4R,5R,6R)-4,5-dihydroxy-6-(hydroxymethyl)-2-((6-methyl-3′-(methylsulfonamido)-[1,1′-biphenyl]-2-yl)oxy)tetrahydro-2H-pyran-3-yl)acetamide]
- IC50 (FmlHLD [1]; IC50): 0.12 µM
- IC50 (FmlHLD [1]; IC50 equated to a concentration, conversion of IC50 of 120 nM): 0.12 µM
- Mouse plasma % remaining 2 h (Mouse plasma stability): 100.00%
- Cmax [4]: 7897 ng/mL
- calculated AUC [4]: 6300 ng·h/mL
- compound exposure at 8 h [4]: moderate compound exposure
- half-life, t1/2 [4]: 1.13 h
- solubility kinetic (Kinetic solubility): 195 µM (≈ 93.7 µg/mL)
- Mouse liver microsomes (t1/12 min) [5]: >145 min
- SIF % remaining 2 h [6]: 100.00%
- SGF % remaining 6 h [7]: 100.00%

Compound: CC(=O)N[C@H]1[C@H](Oc2ccccc2-c2cccc(C(=O)O)c2)O[C@H](CO)[C@H](O)[C@@H]1O [D00014 row 1, 2′-(2-acetamido-2-deoxy-β-D-galactopyranosyloxy)-[1,1′-Biphenyl]-3-carboxylic acid]
- IC50 [8]: 650 nM
